# Assay: Chemical stability of DCE in the particulate emulsion (HPLC/UV)
# Type: physicochemical
# Procedure: The chemical stability of DCE in the particulate emulsion was monitored using an HPLC/UV method at 4° C. and at room temperature.
# [1] = extrapolation with the slope of the decay
compound,measurement,setting,value
"CCCCCCCCCCCCOC(=O)CN(C)C(=N)N [DCE, dodecyl creatine ester]",Calculation of remaining content (%) after 1 month of storage at room temperature,[1],99%
same,Estimation of remaining content after 18 months of storage at 4° C.,[1],more than 95%
same,Period over which DCE is stable,storage at room temperature (20-25° C.),more than 20 days
same,Period over which DCE is stable,storage in the fridge (4° C.),more than 3 months
